Tests used:
[1] = tested on: lung cancer cells (H1299); test: CCK-8 cell viability analysis (cytotoxicity of the derivative alone); type: cell-based; details: 1 μM, 5 μM and 10 μM, FIG. 2
Description: (§1) Here, in order to confirm that the inhibitory activity of luciferase was caused by an Nrf2 inhibitor, rather than by apoptosis of the cells, cell counting kit-8 (CCK-8) (Dojindo, Japan) for the determination of cell viability and a spectroscopic device (Labsystems, USA) were used to measure absorbance values of the cells at a wavelength of 480 nm.
as §1, with “by” for “by an”, “inhibitors, i.e., Derivative #2 to #10,” for “inhibitor,”, “CCK-8” for “cell counting kit-8 (CCK-8)”

[2] = tested on: breast cancer cells (MDA-MB231); test: Colony-forming assay with gamma irradiation, breast cancer cells; type: cell-based, human; details: MDA-MB231, 1 μM to 10 μM for 2 hours, gamma radiation, 7 days, FIG. 10
Method: (§2) Lung cancer cells (H1299, ATCC, CRL-5803™), brain cancer cells (U87MG, ATCC, HTB-14™ human glioblastoma), breast cancer cells (MDA-MB231, ATCC, HTB-26™ human breast adenocarcinoma), and colorectal cancer cells (HCT116, ATCC, CCL-247™ human colorectal carcinoma) were each inoculated in each well of a 96-well plate containing Rosewell Park Memorial Institute medium (RPMI) 1640 enriched with 10% FBS, 100 μg/ml of streptomycin, and 100 unit/ml of penicillin. Then, these cells were each treated with 2-(5-bromonaphthalene-1-yl)benzo[d]oxazole-5-amine (Derivative #1) for 2 hours in a concentration of 1 μM to 10 μM, were irradiated using gamma radiation according to radiation dose, and were cultured for 7 days under conditions of 5% CO2 and a temperature of 37° C. The cultured cells were washed out with phosphate buffered saline (PBS), and then, were stained with a mixture of 1% methylene blue and 100% methanol. Afterwards, a number of colony-forming cells was counted, and all the treatment above were repeatedly performed 3 times.

[3] = tested on: lung cancer cells (H1299); test: Colony-forming assay with gamma irradiation, lung cancer cells; type: cell-based; details: H1299, 1 μM to 10 μM for 2 hours, gamma radiation, 7 days, FIG. 8
Method: as §2

[4] = tested on: brain cancer cells (U87MG); test: Colony-forming assay with gamma irradiation, brain cancer cells; type: cell-based, human; details: 1 μM to 10 μM for 2 hours, gamma radiation, 7 days, FIG. 9
Method: as §2

heme oxygenase (HO)-1 = test: Western blot of HO-1 protein in tBHQ-treated lung cancer cells; type: cell-based; details: 5 μM or 10 μM, 2 hours, FIG. 5
Method: (§3) By using a western blot, it was confirmed whether 2-(5-bromonaphthalene-1-yl)benzo[d]oxazole-5-amine (Derivative #1), which is a Nrf2 inhibitor, has targeted a Nrf2 protein and its downstream antioxidant enzyme heme oxygenase (HO)-1, based on the inhibitory activity of the ARE-pGL3 luciferase.
(§4) The lung cancer cells were treated with 2-(5-bromonaphthalene-1-yl)benzo[d]oxazole-5-amine (Derivative #1) in a concentration of about 5 μM or about 10 μM, and 2 hours later, the protein expression was analyzed to measure amounts of Nrf2 and HO-1 proteins, which were increased by tBHQ treatment.
(§5) First, the cells treated with 2-(5-bromonaphthalene-1-yl)benzo[d]oxazole-5-amine (Derivative #1) were obtained, and then, cytosolic fractions were obtained therefrom by using a method commonly used in the art.
(§6) The cytosolic fractions were separated by electrophoresis using 10% gradient SDS-PAGE, and then, were transferred to a nitrocellulose membrane (BioRad, Hercules, Calif., USA). The membrane was blocked with 5% skim milk, and then, a reaction with primary antibodies, e.g., anti-Nrf2 (Abcam, USA) and an HO-1 antibody (Oncogene Research Products, USA), was allowed. […]

Nrf2 = test: ARE-pGL3 (Nrf2-responsive) luciferase reporter analysis in tBHQ-treated lung cancer cells; type: cell-based
Method: Lung cancer cells (H1299) purchased from American Type Culture Collection (ATCC, CRL-5803™) were cultured in Dulbecco's modified Eagle's medium (DMEM) enriched with 10% fetal bovine serum (FBS), 100 μg/ml of streptomycin, and 100 unit/ml of penicillin, under conditions of 5% CO2 and a temperature of 37° C.
Then, the cells were transformed by using Lipofectamine 2000 (In vitrogen, Life technologies, USA) (i.e., a plasmid transfection reagent used in DMEM) so that an antioxidant response element (ARE)-pGL3 luciferase plasmid to which an Nrf2 transcription factor can bind was introduced to the cells, according to the manufacturer's instructions.
About 20,000 of the transformed cells were inoculated in each well of a 96-well plate, and then, the cells were cultured for 24 hours under the same conditions described above. Afterwards, tertiary butylhydroquinone (tBHQ) that activates ARE was added to each well. Accordingly, it was confirmed that activity of luciferase was increased at least about 3 times as large as activity of luciferase in cells that were not treated with tBHQ.
Next, the tBHQ-treated cells were additionally treated with 2-(5-bromonaphthalene-1-yl)benzo[d]oxazole-5-amine (ChemBridge, cat#5721754, San Diego, Calif., USA) (Derivative #1) in concentration of 1 μM, 5 μM, and 10 μM, and then, were incubated for 18 hours. […]

[5] = tested on: colorectal cancer cells (HCT116); test: Colony-forming assay with gamma irradiation, colorectal cancer cells; type: cell-based, human; details: HCT116, 1 μM to 10 μM for 2 hours, gamma radiation, 7 days, FIG. 11
Method: as §2

[6] = tested on: lung cancer cell strain (H1299); test: CCK-8 analysis after derivative plus doxorubicin (anticancer agent sensitivity); type: cell-based; details: 48 hours, FIG. 13
Method: In order to confirm whether the above-described benzo[d]oxazole derivative that increases the apoptotic effects of ROS also have such apoptotic effects when the benzo[d]oxazole derivative is used in combination with, other than radiation, an anticancer agent to produce ROS, the synthesized benzo[d]oxazole derivative was treated in combination with doxorubicin, which is an anticancer agent.
The lung cancer cell strain (H1299) was treated with each of the synthesized benzo[d]oxazole derivatives (Derivatives #1 to #10) for 2 hours in a concentration of 10 μM, and then, were treated with doxorubicin in a concentration of 150 nM. After 48 hours of the treatment, CCK-8 for the determination of cell viability was used to measure the lung cancer cells that were died by apoptosis.

Nrf2 protein = target: T1, Nrf2 protein (Homo sapiens, UniProt Q16236); test: Western blot of Nrf2 protein in tBHQ-treated lung cancer cells; type: cell-based; details: 5 μM or 10 μM, 2 hours, FIG. 5
T1 construct: endogenous in cells
T1 sequence (Q16236 1-605): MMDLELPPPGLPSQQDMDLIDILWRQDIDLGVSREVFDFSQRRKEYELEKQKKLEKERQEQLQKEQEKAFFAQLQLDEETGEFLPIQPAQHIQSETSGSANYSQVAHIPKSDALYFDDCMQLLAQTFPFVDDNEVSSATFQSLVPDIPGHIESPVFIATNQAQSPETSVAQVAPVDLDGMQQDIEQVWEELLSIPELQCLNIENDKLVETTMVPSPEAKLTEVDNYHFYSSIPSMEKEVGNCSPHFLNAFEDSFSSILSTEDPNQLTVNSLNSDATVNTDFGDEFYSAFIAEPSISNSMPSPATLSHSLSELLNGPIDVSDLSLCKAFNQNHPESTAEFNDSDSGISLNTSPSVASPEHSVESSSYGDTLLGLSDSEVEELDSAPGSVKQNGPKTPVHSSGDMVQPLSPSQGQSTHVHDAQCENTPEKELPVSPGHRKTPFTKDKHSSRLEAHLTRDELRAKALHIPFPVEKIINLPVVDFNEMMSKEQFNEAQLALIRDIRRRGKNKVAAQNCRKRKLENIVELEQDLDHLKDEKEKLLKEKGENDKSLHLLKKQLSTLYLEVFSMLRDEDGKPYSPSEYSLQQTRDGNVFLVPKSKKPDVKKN
Method: as §3, §4, §5, §6

[7] = tested on: lung cancer cells (H1299); test: ROS production by DCF-DA staining and FACS, combined with irradiation; type: cell-based
Method: The lung cancer cells (H1299) that were cultured in the same manner as in Example 1 were treated with dihydrodichlorofluorescein diacetate (DCF-DA, Sigma, USA) and were subjected to fluorescence staining. The stained cells were then treated with 2-(5-bromonaphthalene-1-yl)benzo[d]oxazole-5-amine (Derivative #1) for 2 hours in a concentration of 5 μM or 10 μM, and 5 Gy of irradiation. Afterwards, an increase in ROS production upon inhibition of Nrf2 was analyzed by FACS.
In addition, in order to confirmed whether the values measured by FACS analysis refer to the ROS production, the lung cancer cells (H1299) were treated with 2 mM of N-acetyl-L-cysteine (NAC), which is a ROS inhibitor, and then, were treated in combination with 2-(5-bromonaphthalene-1-yl)benzo[d]oxazole-5-amine (Derivative #1) in a concentration of 10 μM and irradiation. As a result, it was confirmed that the ROS production was inhibited.

## Nc1ccc2oc(-c3cccc4c(Br)cccc34)nc2c1 [Derivative #1, 2-(5-bromonaphthalene-1-yl)benzo[d]oxazole-5-amine]
[1]
  cytotoxicity (CCK-8 viability): no cytotoxicity
[2]
  apoptotic effects on cancer cells by irradiation (colony-forming cells): increased apoptotic effects
[3]
  apoptotic effects on cancer cells by irradiation (colony-forming cells): increased apoptotic effects
[4]
  apoptotic effects on cancer cells by irradiation (colony-forming cells): increased apoptotic effects
Heme oxygenase (HO)-1
  amount of HO-1 protein increased by tBHQ treatment: reduced depending on the concentration
Nrf2; tBHQ-treated H1299, 1 μM, 5 μM and 10 μM, 18 hours, FIG. 1
  inhibitory activity of ARE-responsive luciferase: dependent upon concentration
[5]
  apoptotic effects on cancer cells by irradiation (colony-forming cells): increased apoptotic effects
[6]; H1299, derivative 10 μM for 2 hours then doxorubicin 150 nM
  apoptotic cell death relative to control group: about 3.7 times
Nrf2 protein
  amount of Nrf2 protein increased by tBHQ treatment: reduced depending on the concentration
[7]; H1299, 5 μM for 2 hours plus 5 Gy irradiation
  ROS production relative to 5 Gy of irradiation only: about 3.5 times
[7]; H1299, 10 μM for 2 hours plus 5 Gy irradiation
  ROS production relative to 5 Gy of irradiation only: ~4.6 times

## CC(C)(C)c1cc(O)ccc1O [tBHQ, tertiary butylhydroquinone, reference compound]
Nrf2; ARE-pGL3 transformed H1299 cells, tBHQ added to each well
  activity of luciferase relative to cells not treated with tBHQ: at least 3 times

## COc1cccc2c1C(=O)c1c(O)c3c(c(O)c1C2=O)C[C@@](O)(C(=O)CO)C[C@@H]3O[C@H]1C[C@H](N)[C@H](O)[C@H](C)O1 [doxorubicin, reference compound]
[6]; H1299, doxorubicin 150 nM only
  apoptotic cell death relative to control group: about 1.35 times

## CC(=O)N[C@@H](CS)C(=O)O [NAC, N-acetyl-L-cysteine, reference compound]
[7]; H1299, 2 mM NAC, then Derivative #1 10 μM plus irradiation
  ROS production after ROS inhibitor treatment: inhibited

Reference: patent US9447054B2, “Anticancer supplement agent including benzo[D]oxazol derivative as effective ingredient” (KOREA INSTITUTE OF RADIOLOGICAL & MEDICAL SCIENCES, priority 2014, dated 2016)
